Patent US20110117208A1, “CHRONIC WOUND TREATMENT” (TECHNOSTICS LIMITED, priority 2008, published 2011)

What was measured:
[1] = target: T1, pepsin (Sus scrofa, UniProt P00791); assay: Trichloroacetic acid (TCA) precipitation assay, pepsin against haemoglobin; assay type: biochemical, porcine; conditions: pH 2; FIG. 4
T1 construct: purchased Sigma-Aldrich Ltd, UK; host or cells: porcine gastric mucosa
Protocol: The TCA assay is based on the method described by M. L. Anson (1938). J General Physiol, 22, 79-89. The substrate, bovine haemoglobin, is digested by pepsin. Any remaining undigested haemoglobin is then precipitated with TCA to yield a supernatant which contains only products of digested haemoglobin. The concentration of haemoglobin breakdown products in the supernatant is measured spectrophotometrically and provides an indication of proteinase activity. The TCA precipitation assay was used to determine the inhibitory effect of polyphosphates and trimetaphosphate on the action of pepsin against haemoglobin.
A series of test solutions containing between 0-306 mg/ml of the proposed inhibitor were prepared. 100 μl of this test solution was then thoroughly mixed with 100 μl of pepsin solution on a vortex mixer before 1500 μl of buffered bovine haemoglobin solution was added and mixed. The inhibitor:enzyme:haemoglobin sample was then incubated in a heated water bath for 30 minutes at 37° C. The samples was then removed from the incubator, mixed with 2.0 ml TCA solution and left to stand for 30 minutes in iced water. […] The absorbance of the supernatant was measured at 280 nm (Labsystems Multiskan Ascent 354, ThermoFisher Scientific, Horsham, West Sussex, UK) using deionised water as a blank. […]

[2] = target: T2, elastase (Sus scrofa, UniProt P00772); assay: Elastin Congo red assay; assay type: biochemical, porcine; conditions: pH 8; FIG. 12, 13, 14
T2 construct: Elastase (from porcine pancreas Type I, aqueous); purchased Sigma-Aldrich Ltd, UK; host or cells: porcine pancreas
T2 sequence (P00772 27-266): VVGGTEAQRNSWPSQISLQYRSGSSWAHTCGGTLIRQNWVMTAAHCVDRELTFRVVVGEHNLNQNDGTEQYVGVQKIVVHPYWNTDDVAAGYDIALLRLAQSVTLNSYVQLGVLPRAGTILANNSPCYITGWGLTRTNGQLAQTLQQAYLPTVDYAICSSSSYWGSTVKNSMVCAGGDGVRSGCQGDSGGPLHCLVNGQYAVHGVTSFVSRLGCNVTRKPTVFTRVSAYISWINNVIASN
Protocol: Elastin Congo red is a commercially available elastin substrate impregnated with the chromophore Congo red. In the presence of elastase the Congo red dye is liberated from the elastin and the resulting colour change can be measured and correlated with elastolytic activity. The elastin Congo red assay was used to determine the inhibitory effect of polyphosphates and trimetaphosphate on the elastase against the elastin Congo red substrate.
A series of test solutions containing between 0-306 mg/ml of the proposed inhibitor were prepared. 100 μl of this test solution was then thoroughly mixed with 100 μl of elastase solution on a vortex mixer. […] of buffered Elastin Congo red solution was then added and mixed. The inhibitor:enzyme:Elastin Congo red sample was then incubated overnight in a heated water bath at 37° C. Samples were then removed from the water bath and placed in iced water to cool for 30 minutes before being centrifuged (Fisher Scientific, accuSpin Model 400 Benchtop Centrifuge) at 13000 rpm for 5 minutes. The absorbance of the supernatant was measured at 540 nm (Labsystems Multiskan Ascent 354, ThermoFisher Scientific, Horsham, West Sussex, UK) using deionised water as a blank. […]

T1 sequence (P00791 60-385): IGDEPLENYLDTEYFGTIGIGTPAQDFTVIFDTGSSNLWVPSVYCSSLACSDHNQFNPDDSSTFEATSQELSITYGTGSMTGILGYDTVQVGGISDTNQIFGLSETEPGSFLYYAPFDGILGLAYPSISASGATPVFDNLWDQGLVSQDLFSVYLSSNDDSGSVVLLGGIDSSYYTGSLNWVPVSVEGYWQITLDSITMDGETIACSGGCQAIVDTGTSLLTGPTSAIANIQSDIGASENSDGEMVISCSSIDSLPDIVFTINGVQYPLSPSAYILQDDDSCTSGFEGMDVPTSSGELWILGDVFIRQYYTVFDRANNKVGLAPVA

Structure (SMILES): O=P1([O-])OP(=O)([O-])OP(=O)([O-])O1.[Na+].[Na+].[Na+] [sodium trimetaphosphate]
- inhibition of pepsin (in words) [1]: could also inhibit pepsin across a wide concentration range; however, the potency and extent of inhibition at maximal concentrations was not as large as that observed with polyphosphates
- inhibition of elastase (in words, comparison) [2]: could also inhibit elastase across a wide concentration range; however, the extent of inhibition at maximal concentrations was not as large as that observed with polyphosphates
